Test results as given in US20250339404A1, “COMBINATION THERAPY USING A CD47-SIRP alpha BLOCKING AGENT AND AZACITIDINE” (Aurigene Oncology Limited, priority 2024, published 2025).
Entries after “also recorded” stand apart in the source; their conditions may differ. Structures can show the parent of a compound that is named as a salt.

How the values were obtained:
HL-60 cells = assay: Phagocytosis of HL-60 cells by human macrophages; format: cell-based
Experimental: The objective of this study was to determine the effect of Calcium salt of compound of formula (I) and azacitidine mediated induction of phagocytosis of HL-60 cells by human macrophages. Different doses of Calcium salt of compound of formula (I) were tested to determine increase in phagocytosis of HL-60 cells (with or without azacitidine treatment) by macrophages isolated from healthy human volunteers.
Preparation of test compound: 20 mM stock concentration of Calcium salt of compound of formula (I) was prepared. The stock was further diluted to get intermediate and final concentrations. The final assay volume was 200 μL. Medium used for dilution is RPMI media. Four concentrations of Calcium salt of compound of formula (I) ranging from 10 μM to 0.3 μM were used in the assay.
Preparation of macrophage culture media: 5 mL of FBS and 10 μL of recombinant human M CSF (100 μg/mL stock) was added to 45 mL of RPMI to prepare macrophage culture media as and when required.
Preparation of HL-60 cell culture media: 10 mL of FBS was added to 40 mL of IMDM media to prepare HL-60 cell culture media.
Preparation of working stock of azacitidine: A 20 mM stock of azacitidine prepared by adding 172.1 μL of DMSO in 0.84 mg of azacitidine. 4.5 μL of 20 mM stock of azacitidine was added to 25.5 μL of DMSO to prepare 3 mM azacitidine working stock solution. This is 1000× of the desired final treatment concentration of 3 μM.
Preparation of working stock of Mouse IgG1 Kappa isotype control: Molarity of mouse IgG1 kappa isotype control antibody was calculated using online molarity calculator (https://www.graphpad.com/quickcalcs/Molarityform.cfm). Formula weight of antibody was 150 KDa. Molarity of isotype control antibody stock was 6.6667 μM. 3 μL of isotype control antibody stock solution was added to 197 μL RPMI media to prepare 100 nM of working stock solution. This is 10× stock of the required conc of isotype control. Preparation of working stock of anti-human CD47 antibody Molarity of anti-human CD47 antibody was calculated using online molarity calculator (https://www.graphpad.com/quickcalcs/Molarityform.cfm). Formula weight of anti-Human CD47 antibody was 150 KDa. Molarity of anti-human CD47 antibody stock was 6.6667 μM. This stock of anti-human CD47 antibody was further diluted to get intermediate and final concentrations as described below. 3 μL of anti-human CD47 antibody stock solution was added to 197 μL RPMI media to prepare 100 nM of working stock solution (10×).
Preparation of test system: 90 mL whole blood from healthy volunteer was collected in a Na-Heparin vacutainer and stored at room temperature until use. PBMCs isolated from blood were used for isolating monocytes and to differentiate them into macrophages for the phagocytosis assay.
90 mL blood was collected from healthy volunteer in NA-Heparin vacutainer. PBMCs were isolated and were resuspended in 50 mL serum free RPMI 1640 media. For isolation of monocytes, 10 mL of PBMC cell suspension was seeded in each T75 culture flask (total 5 flasks) and were cultured at 37 degree for 2 hours. Monocytes were attached to culture flask by adherence method. Media from these flasks was discarded and attached monocytes were washed once with prewarmed PBS. Monocytes were further cultured in 10 mL of macrophage culture media and were differentiated to macrophages for 10 days. Media from each flask was changed every alternate day or after every 2 days with fresh macrophage culture media.
A vial of HL-60 cell stock was taken from liquid nitrogen. Cells were thawed in a water bath at 37° C. till the last crystal is thawed. Cells were transferred to 50 mL of culture media in a falcon tube and centrifuged at 800 rpm for 8 minutes. Cells were further cultured in 20 mL of HL-60 cell culture media in T75 flasks at 37° C. at 5% CO2 for 24 hrs. After 24 hrs, the cells were centrifuged at 800 rpm for 5 mins. The cells were cultured in 25 mL of complete media at 37° C. and 5% CO2 for 2 more days. […]

[1] = tested on: Chemokines (MCP-3, MCP-1, MIP-1α & MIP-1β) and Cytokines (IL-12p40, IL-1A, IL-8, TNFα & IL-6); assay: Pharmacodynamic biomarkers in the Phase I/IIa study; format: in vivo, human; conditions: all cohorts, as a result of treatment
Description: Chemokines are known for their role in recruitment of macrophages to sites of infection, damage, or tumors for the purpose of phagocytosis and healing. An upregulation of chemokines followed by administration of the compound of formula (I) is indicative of the CD-47 inhibition mediated enhanced phagocytosis. Disruption of the IL-6-STAT3 axis is known to reduce the ability of tumor cells to escape phagocytosis (Jing Chen et al. Oncoimmunology 2019, VOL. 8, NO. 11, e1652540). A drop in IL-6 level is also indicative of macrophage activation.

[2] = Phase I/IIa open label dose-escalation safety study in subjects with relapsed advanced malignancies; format: in vivo, human; conditions: for Grade 3 or 4 toxicities / adverse events: correlated with the Test Product
Description: Study objective: To evaluate the overall safety profile of the compound of formula (I) in human subjects with relapsed advanced malignancies.
The following table summarizes the (final) study protocol.

[3] = Azacitidine 3 μM alone, HL-60 cells treated 72 hrs
[4] = all subjects, across dose levels 25-400 mg BID oral
[5] = 0.3 μM, DMSO treated HL-60 cells
[6] = 10 μM, DMSO treated HL-60 cells, normalized to 10 nM anti-human CD47

Nc1ncn([C@@H]2O[C@H](CO)[C@@H](O)[C@H]2O)c(=O)n1 [Azacitidine, 4-Amino-1-β-D-ribofuranosyl-s-triazin-2(1H)-one]
increase in phagocytosis of HL-60 cells (HL-60 cells; 3 μM azacitidine treatment of HL-60 cells alone): 71.26%
% Normalized phagocytosis Replicate 1 (HL-60 cells; [3]): 76.25%
% Normalized phagocytosis Replicate 2 (HL-60 cells; [3]): 66.28%

N=C(N)NCCC[C@H](NC(=O)N1CCC[C@@H]1C(=O)O)c1nc([C@@H](N)CCC(=O)O)no1 [Compound of formula (I)]
IL12p40, TNFα, MCP-1, MIP-1α, MIP-1β and MCP-3 levels [1]: a trend towards upregulation
IL-6 and IL-1α levels [1]: a trend towards downregulation
severity of reported non-serious adverse events ([2]; all cohorts, NCI CTCAE v 5.0): mild to moderate
Grade 3 or 4 toxicities / adverse events ([2]; all cohorts): no grade 3 or grade 4 adverse events
Grade 3 or 4 toxicities / adverse events ([2]; all cohorts, listed as compound of formula (I)): no grade 3 or grade 4 adverse events
DLT (Dose Limiting Toxicity) [2, 4]: without any DLT
hemolytic anemia [2, 4]: No hemolytic anemia was reported in any subject; also recorded: no hemolytic anemia in any of the tested subjects
tolerability of treatment ([2]; all subjects, across dose levels 25-400 mg BID oral, up to 4 cycles of 28 days): well tolerated
hemolytic anemia ([2]; all subjects, across dose levels 25-400 mg BID oral, listed as compound of formula (I)): no hemolytic anemia in any of the tested subjects
safe and tolerable total daily dose ([2]; oral, total daily dose): ≤ 800 mg
safe and tolerable dose ([2]; per oral BID): ≤ 400 mg
Serious Adverse Reactions (SAR's) or Suspected Unexpected Serious Adverse Reactions (SUSAR's) ([2]; reporting period): No Serious Adverse Reactions (SAR's) or Suspected Unexpected Serious Adverse Reactions (SUSAR's) were reported
dose reductions due to treatment-related AEs ([2]; reporting period): no dose reductions

N=C(N)NCCC[C@H](NC(=O)N1CCCC1C(=O)O)c1nc([C@@H](N)CCC(=O)O)no1 (stereo partly shown) [Calcium salt of compound of formula (I)]
% Normalized phagocytosis Replicate 1 (HL-60 cells; [5]): −1.92%
% Normalized phagocytosis Replicate 2 (HL-60 cells; [5]): −10.34%
% Normalized phagocytosis Replicate 1 (HL-60 cells; 1 μM, DMSO treated HL-60 cells): 19.54%
% Normalized phagocytosis Replicate 2 (HL-60 cells; 1 μM, DMSO treated HL-60 cells): 4.98%
% Normalized phagocytosis Replicate 1 (HL-60 cells; 3 μM, DMSO treated HL-60 cells): −10.34%
% Normalized phagocytosis Replicate 2 (HL-60 cells; 3 μM, DMSO treated HL-60 cells): −14.94%
increase in phagocytosis of HL-60 cells (HL-60 cells; 10 μM alone): 54.79%
% Normalized phagocytosis Replicate 1 (HL-60 cells; [6]): 62.35%
% Normalized phagocytosis Replicate 2 (HL-60 cells; [6]): 47.13%
Grade 3 or 4 toxicities / adverse events ([2]; all cohorts): No Grade 3 or 4 toxicities
causality assessment of the serious adverse events ([2]; by principal investigators and study sponsor): Not Related
serious adverse events reported ([2]; one in cohort 2 (50 mg BID), one in cohort 3 (100 mg BID)): Two serious adverse events were reported
